# Measured values published in US20020138123A1, “Medical electrical leads and indwelling catheters with enhanced biocompatibility and biostability” (Medtronic, Inc., priority 1998, published 2002).
# Columns and labels:
# Assay type in all cases: cell-based
# [1] = tested on: human Mo/MØs; experiment: Morphology of Mo/MØ monolayers on polyetherurethane cultured with DSP (OM, SEM); details: human Mo/MØs on PEU cultured with DSP in media, versus standard media
# Method: Blood was anticoagulated with 2 units/ml sodium heparin (Upjohn Co., Kalamazoo, Mich.). Mononuclear cells (lymphocytes, monocytes) were isolated within 15 minutes by a one-step density gradient centrifugation procedure using Isopaque-1077 (a density gradient solution) according to a modified Boyum's method (Boyum et al., Blood Separation and Plasma Fractionation, 217-239, Wiley-Liss, Inc. (1991)). The mononuclear cells were harvested and washed twice with cold Hanks balanced salt solution (HBSS) without Ca^2+ and Mg^2+ to minimize cell aggregation. The cells were then resuspended in standard media (RPMI-1640, 10% Fetal bovine serum, 0.2M L-glutamine, 10 Ul/ml Penicillin-G, and 0.1 mg/ml Streptomycin). The cell suspension was seeded into several plastic tissue culture flasks and incubated in the presence of 5% CO2 at 37° C. for 1 hour (Ackerman et al., J. Immunol., 20, 1372-1374 (1978)). After this incubation, adherent (monocytes) were gently scrapped from the surface and resuspended in standard media. Nonadherent cells (lymphocytes) contained in the supernatant were recovered into sterile tubes, and the remaining nonadherent cells washed off with cold HBSS. […] The polymer surfaces were also evaluated using SEM following the 10-day treatment with FeCl2. […]
# [2] = tested on: IL-1α; experiment: Cytokine analysis, in vitro expression of IL-1α; details: human primary monocytes; DEX 2.5, 0.25, 0.025 μg/ml; methotrexate 50, 5, 0.5 μg/ml; dose- and incubation time-dependent
# Method: (§1) In order to assess the in vitro expression of IL-1α and IL-8, human primary monocytes were incubated with various concentrations of DEX (2.5, 0.25, and 0.025 μg/ml) and methotrexate (50, 5, and 0.5 μg/ml).
# [3] = tested on: IL-8; experiment: Cytokine analysis, in vitro expression of IL-8; details: human primary monocytes; DEX 2.5, 0.25, 0.025 μg/ml; methotrexate 50, 5, 0.5 μg/ml; dose- and incubation time-dependent
# Method: as §1
SMILES,cell size of Mo/MØ monolayers (OM) [1],IL-1 inhibition [2],IL-8 inhibition [3]
"C[C@@H]1C[C@H]2[C@@H]3CCC4=CC(=O)C=C[C@]4(C)[C@@]3(F)[C@@H](O)C[C@]2(C)[C@@]1(O)C(=O)COP(=O)(O)O [DSP, dexamethasone sodium phosphate]",no increase in cell size,–,–
CN(Cc1cnc2nc(N)nc(N)c2n1)c1ccc(C(=O)N[C@@H](CCC(=O)O)C(=O)O)cc1 [methotrexate],–,higher rate of IL-1 and IL-8 inhibition,higher rate of IL-1 and IL-8 inhibition
